How the values were obtained:
Assay type in all cases: functional
[1] = test system: MDA-MB-468; test: Cytotoxicity against human MDA-MB-468 cells assessed as cellular growth at 10 uM by SRB assay
[2] = test system: T47D; test: Cytotoxicity against human T47D cells assessed as cellular growth at 10 uM by SRB assay
[3] = test system: BT-549; test: Cytotoxicity against human BT549 cells assessed as cellular growth at 10 uM by SRB assay
[4] = test system: Hs-578T; test: Cytotoxicity against human Hs578T cells assessed as cellular growth at 10 uM by SRB assay
[5] = test system: MDA-MB-231; test: Cytotoxicity against human MDA-MB-231 cells assessed as cellular growth at 10 uM by SRB assay
[6] = test system: MCF7; test: Cytotoxicity against human MCF7 cells assessed as cellular growth at 10 uM by SRB assay
[7] = test system: DU-145; test: Cytotoxicity against human DU145 cells assessed as cellular growth at 10 uM by SRB assay
[8] = test system: UO-31; test: Cytotoxicity against human UO31 cells assessed as cellular growth at 10 uM by SRB assay
[9] = test system: PC-3; test: Cytotoxicity against human PC3 cells assessed as cellular growth at 10 uM by SRB assay
[10] = test system: TK-10; test: Cytotoxicity against human TK10 cells assessed as cellular growth at 10 uM by SRB assay
[11] = test system: SN12C; test: Cytotoxicity against human SN12C cells assessed as cellular growth at 10 uM by SRB assay
[12] = test system: RXF 393; test: Cytotoxicity against human RXF393 cells assessed as cellular growth at 10 uM by SRB assay
[13] = test system: ACHN; test: Cytotoxicity against human ACHN cells assessed as cellular growth at 10 uM by SRB assay
[14] = test system: CAKI-1; test: Cytotoxicity against human Caki1 cells assessed as cellular growth at 10 uM by SRB assay
[15] = test system: A498; test: Cytotoxicity against human A498 cells assessed as cellular growth at 10 uM by SRB assay
[16] = test system: 786-0; test: Cytotoxicity against human 786-0 cells assessed as cellular growth at 10 uM by SRB assay
[17] = test system: SK-OV-3; test: Cytotoxicity against human SKOV3 cells assessed as cellular growth at 10 uM by SRB assay
[18] = Cytotoxicity against human NCI-ADR-RES cells assessed as cellular growth at 10 uM by SRB assay
[19] = test system: OVCAR-8; test: Cytotoxicity against human OVCAR8 cells assessed as cellular growth at 10 uM by SRB assay
[20] = test system: OVCAR-5; test: Cytotoxicity against human OVCAR5 cells assessed as cellular growth at 10 uM by SRB assay
[21] = test system: OVCAR-3; test: Cytotoxicity against human OVCAR3 cells assessed as cellular growth at 10 uM by SRB assay
[22] = test system: IGROV-1; test: Cytotoxicity against human IGROV1 cells assessed as cellular growth at 10 uM by SRB assay
[23] = test system: UACC-62; test: Cytotoxicity against human UACC62 cells assessed as cellular growth at 10 uM by SRB assay
[24] = test system: UACC-257; test: Cytotoxicity against human UACC257 cells assessed as cellular growth at 10 uM by SRB assay
[25] = test system: SK-MEL-5; test: Cytotoxicity against human SK-MEL-5 cells assessed as cellular growth at 10 uM by SRB assay
[26] = test system: SK-MEL-28; test: Cytotoxicity against human SK-MEL-28 cells assessed as cellular growth at 10 uM by SRB assay
[27] = test system: SK-MEL-2; test: Cytotoxicity against human SK-MEL-2 cells assessed as cellular growth at 10 uM by SRB assay
[28] = test system: MDA-MB-435; test: Cytotoxicity against human MDA-MB-435 cells assessed as cellular growth at 10 uM by SRB assay
[29] = test system: M14; test: Cytotoxicity against human M14 cells assessed as cellular growth at 10 uM by SRB assay
[30] = test system: Malme-3M; test: Cytotoxicity against human MALME-3M cells assessed as cellular growth at 10 uM by SRB assay
[31] = test system: LOX IMVI; test: Cytotoxicity against human LOXIMVI cells assessed as cellular growth at 10 uM by SRB assay
[32] = test system: U-251; test: Cytotoxicity against human U251 cells assessed as cellular growth at 10 uM by SRB assay
[33] = test system: SNB-75; test: Cytotoxicity against human SNB75 cells assessed as cellular growth at 10 uM by SRB assay
[34] = test system: SNB-19; test: Cytotoxicity against human SNB19 cells assessed as cellular growth at 10 uM by SRB assay
[35] = test system: SF-539; test: Cytotoxicity against human SF539 cells assessed as cellular growth at 10 uM by SRB assay
[36] = test system: SF-295; test: Cytotoxicity against human SF295 cells assessed as cellular growth at 10 uM by SRB assay
[37] = test system: SF-268; test: Cytotoxicity against human SF268 cells assessed as cellular growth at 10 uM by SRB assay
[38] = test system: SW-620; test: Cytotoxicity against human SW620 cells assessed as cellular growth at 10 uM by SRB assay
[39] = test system: KM12; test: Cytotoxicity against human KM12 cells assessed as cellular growth at 10 uM by SRB assay
[40] = test system: HT-29; test: Cytotoxicity against human HT-29 cells assessed as cellular growth at 10 uM by SRB assay
[41] = test system: HCT-15; test: Cytotoxicity against human HCT15 cells assessed as cellular growth at 10 uM by SRB assay
[42] = test system: HCT-116; test: Cytotoxicity against human HCT116 cells assessed as cellular growth at 10 uM by SRB assay
[43] = test system: HCC 2998; test: Cytotoxicity against human HCC2998 cells assessed as cellular growth at 10 uM by SRB assay
[44] = test system: NCI-H522; test: Cytotoxicity against human NCI-H522 cells assessed as cellular growth at 10 uM by SRB assay
[45] = test system: COLO 205; test: Cytotoxicity against human COLO205 cells assessed as cellular growth at 10 uM by SRB assay
[46] = test system: NCI-H460; test: Cytotoxicity against human NCI-H460 cells assessed as cellular growth at 10 uM by SRB assay
[47] = test system: NCI-H322M; test: Cytotoxicity against human NCI-H322M cells assessed as cellular growth at 10 uM by SRB assay
[48] = test system: NCI-H226; test: Cytotoxicity against human NCI-H226 cells assessed as cellular growth at 10 uM by SRB assay
[49] = test system: NCI-H23; test: Cytotoxicity against human NCI-H23 cells assessed as cellular growth at 10 uM by SRB assay
[50] = test system: EKVX; test: Cytotoxicity against human EKVX cells assessed as cellular growth at 10 uM by SRB assay
[51] = test system: HOP-62; test: Cytotoxicity against human HOP62 cells assessed as cellular growth at 10 uM by SRB assay
[52] = test system: A549; test: Cytotoxicity against human A549 cells assessed as cellular growth at 10 uM by SRB assay
[53] = test system: SR; test: Cytotoxicity against human SR cells assessed as cellular growth at 10 uM by SRB assay
[54] = test system: MOLT-4; test: Cytotoxicity against human MOLT4 cells assessed as cellular growth at 10 uM by SRB assay
[55] = test system: RPMI-8226; test: Cytotoxicity against human RPMI8226 cells assessed as cellular growth at 10 uM by SRB assay
[56] = test system: K562; test: Cytotoxicity against human K562 cells assessed as cellular growth at 10 uM by SRB assay
[57] = test system: HL-60(TB); test: Cytotoxicity against human HL-60(TB) cells assessed as cellular growth at 10 uM by SRB assay
[58] = test system: CCRF-CEM; test: Cytotoxicity against human CCRF-CEM cells assessed as cellular growth at 10 uM by SRB assay

## COc1ccc2nc(NC(=O)c3ccc(F)cc3)sc2c1
[1]
  Activity: 102.55%
[2]
  Activity: 76.48%
[3]
  Activity: 104.05%
[4]
  Activity: 114.71%
[5]
  Activity: 116.29%
[6]
  Activity: 70.13%
[7]
  Activity: 105.68%
[8]
  Activity: 99.75%
[9]
  Activity: 88.31%
[10]
  Activity: 98.88%
[11]
  Activity: 112.11%
[12]
  Activity: 110.56%
[13]
  Activity: 88.79%
[14]
  Activity: 79.13%
[15]
  Activity: 85.54%
[16]
  Activity: 96.69%
[17]
  Activity: 104.34%
[18]
  Activity: 89.25%
[19]
  Activity: 94.61%
[20]
  Activity: 97.79%
[21]
  Activity: 101.58%
[22]
  Activity: 98.94%
[23]
  Activity: 88.71%
[24]
  Activity: 97.45%
[25]
  Activity: 89.97%
[26]
  Activity: 110.86%
[27]
  Activity: 143.55%
[28]
  Activity: 96.73%
[29]
  Activity: 106.56%
[30]
  Activity: 92.36%
[31]
  Activity: 102.03%
[32]
  Activity: 98.75%
[33]
  Activity: 109.5%
[34]
  Activity: 109.05%
[35]
  Activity: 97.47%
[36]
  Activity: 54.56%
[37]
  Activity: 106.57%
[38]
  Activity: 101.19%
[39]
  Activity: 93.29%
[40]
  Activity: 90.2%
[41]
  Activity: 85.45%
[42]
  Activity: 95.31%
[43]
  Activity: 87.56%
[44]
  Activity: 75.43%
[45]
  Activity: 115.29%
[46]
  Activity: 19.56%
[47]
  Activity: 75.75%
[48]
  Activity: 92.48%
[49]
  Activity: 85.96%
[50]
  Activity: 79.56%
[51]
  Activity: 108.23%
[52]
  Activity: 47.59%
[53]
  Activity: 104.31%
[54]
  Activity: 87.45%
[55]
  Activity: 87.06%
[56]
  Activity: 82.42%
[57]
  Activity: 108.33%
[58]
  Activity: 91.13%

## COc1ccc(Cl)cc1C(=O)Nc1nc2ccc(Cl)cc2s1
[1]
  Activity: 76.66%
[2]
  Activity: 47.23%
[3]
  Activity: 97.73%
[4]
  Activity: 102.47%
[5]
  Activity: 70.89%
[6]
  Activity: 41.75%
[7]
  Activity: 94.89%
[8]
  Activity: 58.24%
[9]
  Activity: 84.45%
[10]
  Activity: 126.89%
[11]
  Activity: 91.7%
[12]
  Activity: 95.02%
[13]
  Activity: 85.89%
[14]
  Activity: 84.36%
[16]
  Activity: 75.8%
[17]
  Activity: 91.86%
[18]
  Activity: 101.67%
[19]
  Activity: 88.9%
[20]
  Activity: 124.2%
[21]
  Activity: 102.8%
[22]
  Activity: 65.9%
[23]
  Activity: 91.53%
[24]
  Activity: 101.95%
[25]
  Activity: 92.79%
[26]
  Activity: 105.02%
[27]
  Activity: 103.7%
[28]
  Activity: 97.59%
[29]
  Activity: 95.14%
[30]
  Activity: 83.31%
[31]
  Activity: 81.24%
[32]
  Activity: 87.26%
[33]
  Activity: 74.28%
[34]
  Activity: 102.79%
[35]
  Activity: 86.39%
[36]
  Activity: 169.8%
[37]
  Activity: 83.22%
[38]
  Activity: 100.98%
[39]
  Activity: 94.77%
[40]
  Activity: 109.45%
[41]
  Activity: 86.52%
[42]
  Activity: 53.23%
[43]
  Activity: 102.29%
[44]
  Activity: 99.37%
[45]
  Activity: 82.83%
[46]
  Activity: 93.65%
[47]
  Activity: 85.62%
[48]
  Activity: 89.17%
[49]
  Activity: 90.46%
[50]
  Activity: 76.23%
[51]
  Activity: 89.42%
[52]
  Activity: 76.66%
[53]
  Activity: 87.67%
[54]
  Activity: 95.65%
[55]
  Activity: 80.55%
[56]
  Activity: 86.76%
[57]
  Activity: 103.5%
[58]
  Activity: 86.4%

— ChEMBL document CHEMBL2202954, “The effect of PLC-γ2 inhibitors on the growth of human tumour cells” (2012)
